Earlier results as cited in US7727979B2, “Guanidine derivatives and their use as neuropeptide FF receptor antagonists” (Actelion Pharmaceuticals Ltd., priority 2003, dated 2010).

System: human and rat-NPFF1 receptor

- times higher affinity to NPFF1 receptor than to the corresponding NPFF2 receptors: 10-60 times
Compound: NC(N)=NCCC[C@@H](NC(=O)C(c1ccccc1)c1ccccc1)C(=O)NCc1ccc(O)cc1 [BIBP3226]
